Experiments:
[1] = biological target: T1, Dihydrofolate reductase (Pneumocystis carinii) (UniProt P16184); assay: Percent Inhibition activity against pneumocystis carinii Dihydrofolate reductase; details: concentration not given here
T1 sequence (whole entry): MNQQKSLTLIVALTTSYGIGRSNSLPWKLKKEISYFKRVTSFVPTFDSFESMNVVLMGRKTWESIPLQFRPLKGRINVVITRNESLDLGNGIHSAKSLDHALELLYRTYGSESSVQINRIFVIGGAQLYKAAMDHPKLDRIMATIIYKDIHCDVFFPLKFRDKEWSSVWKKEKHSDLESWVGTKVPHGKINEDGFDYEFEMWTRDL

[2] = test system: Panel leukemia (Carcinoma cell lines); assay: In vitro inhibitory activity against the growth of tumor cells in leukemia cells;Value ranges from (10e-6 to 10e-7); type: functional; details: Homo sapiens
[3] = Selectivity ratio as the ratio of IC50 value against recombinant human (rh) DHFR to that of Escherichia coli (ec) DHFR.; type: functional
[4] = Selectivity ratio as the ratio of IC50 value against recombinant human (rh) DHFR to that of Toxoplasma gondii (tg) DHFR.; type: functional
Dihydrofolate reductase [5] = biological target: T2, Dihydrofolate reductase (Pneumocystis carinii, UniProt P16184)
T2 sequence (P16184 whole entry): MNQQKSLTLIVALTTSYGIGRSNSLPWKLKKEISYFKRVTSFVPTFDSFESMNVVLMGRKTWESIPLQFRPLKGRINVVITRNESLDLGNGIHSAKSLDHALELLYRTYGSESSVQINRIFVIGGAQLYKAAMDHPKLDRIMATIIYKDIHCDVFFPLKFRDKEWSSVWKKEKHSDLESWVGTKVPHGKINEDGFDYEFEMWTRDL
Description: Inhibitory activity against pneumocystis carinii Dihydrofolate reductase

[6] = biological target: T3, Bifunctional dihydrofolate reductase-thymidylate synthase (Toxoplasma gondii, UniProt Q07422)
T3 sequence (Q07422 whole entry): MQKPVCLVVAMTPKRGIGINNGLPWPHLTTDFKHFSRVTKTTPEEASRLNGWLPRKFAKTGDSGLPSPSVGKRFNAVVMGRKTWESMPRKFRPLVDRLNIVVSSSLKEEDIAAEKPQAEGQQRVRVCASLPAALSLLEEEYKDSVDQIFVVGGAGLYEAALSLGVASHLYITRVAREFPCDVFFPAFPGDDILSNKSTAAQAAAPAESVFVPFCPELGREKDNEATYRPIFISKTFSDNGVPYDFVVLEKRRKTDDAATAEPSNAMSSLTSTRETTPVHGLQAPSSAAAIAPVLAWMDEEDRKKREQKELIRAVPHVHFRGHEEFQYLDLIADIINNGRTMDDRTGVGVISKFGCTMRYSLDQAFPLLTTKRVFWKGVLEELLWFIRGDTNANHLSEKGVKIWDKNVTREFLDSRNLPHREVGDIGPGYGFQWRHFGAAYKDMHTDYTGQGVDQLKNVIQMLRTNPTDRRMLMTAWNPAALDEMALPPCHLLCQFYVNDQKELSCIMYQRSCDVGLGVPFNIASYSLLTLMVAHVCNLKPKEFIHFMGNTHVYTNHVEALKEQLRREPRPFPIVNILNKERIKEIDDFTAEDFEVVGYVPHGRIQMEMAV
Description: Inhibitory activity against Toxoplasma gondii (tg) Dihydrofolate reductase (DHFR)

Dihydrofolate reductase [7] = biological target: T4, Dihydrofolate reductase (Homo sapiens, UniProt P00374)
T4 sequence (P00374 whole entry): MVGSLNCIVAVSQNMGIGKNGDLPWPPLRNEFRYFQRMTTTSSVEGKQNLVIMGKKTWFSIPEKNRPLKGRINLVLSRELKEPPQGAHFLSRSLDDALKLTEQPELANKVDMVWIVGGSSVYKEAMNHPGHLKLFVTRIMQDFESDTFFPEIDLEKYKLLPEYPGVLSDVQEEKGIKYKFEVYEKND
Description: Inhibitory activity against recombinant human Dihydrofolate reductase

[8] = Kinetic constant Vmax relative to aminopterin; type: ADME
[9] = Concentration required to decrease cell growth by 50% in methotrexate-resistant CCRF-CEM human leukemia subline (R1); type: functional, cell-based
[10] = Concentration required to decrease cell growth by 50% in methotrexate-resistant CCRF-CEM human leukemia subline (R2); type: functional, cell-based
[11] = Concentration required to decrease cell growth by 50% in methotrexate-resistant CCRF-CEM human leukemia subline (R30dm); type: functional, cell-based
CCRF-CEM = assay: Concentration required to decrease cell growth by 50% in CCRF-CEM human leukemia cell line; type: functional, cell-based
[12] = Kinetic parameter Vmax of the compound; type: ADME
[13] = Selectivity ratio as the ratio of IC50 value against recombinant human (rh) DHFR to that of pneumocystis carinii (pc ) DHFR.; type: functional
[14] = substrate: Nc1nc(N)c2cc3c(nc2n1)CCN(Cc1ccc(C(=O)N[C@@H](CCC(=O)O)C(=O)O)cc1)C3; assay: (§1) Ability to act as a substrate for human folyglutamate synthetase (FPGS)
[15] = substrate: Nc1nc(N)c2nc(CNc3ccc(C(=O)N[C@@H](CCC(=O)O)C(=O)O)cc3)cnc2n1; assay: as §1

Work on `Nc1nc(N)c2cc3c(nc2n1)CCN(C(=O)OCc1ccccc1)C3` yielded an inhibition [1] of 35%, a GI50 [2] of 1 µM and a Ratio [3] of 10. The Ratio [4] was 1.3, the IC50 (Dihydrofolate reductase [5]) was greater than 15 µM and the IC50 [6] was 22 µM. It also gave an IC50 (Dihydrofolate reductase [7]) of 30 µM.

`Nc1nc(N)c2cc3c(nc2n1)CCN(Cc1ccccc1)C3` showed a GI50 [2] of 1 µM, an IC50 (Dihydrofolate reductase [5]) of 16 µM and an IC50 [6] of 1.4 µM. The IC50 (Dihydrofolate reductase [7]) was 32 µM.

Molecule `Nc1nc(N)c2cc3c(nc2n1)CCN(Cc1ccc(C(=O)N[C@@H](CCC(=O)O)C(=O)O)cc1)C3` has a Vmax rel [8] of 1.07, a GI50 [2] of 1 µM and an EC50 [9] greater than 10 µM. For the same molecule, the EC50 [10] was greater than 10 µM, the EC50 [11] was 1.9 µM and the EC50 (CCRF-CEM) was 0.771 µM. For the same molecule, the IC50 (Dihydrofolate reductase [5]) was 1.8 µM and the IC50 (Dihydrofolate reductase [7]) was 5.4 µM.

Work on `Nc1nc(N)c2cc3c(nc2n1)CCN(Cc1ccc(Cl)cc1Cl)C3` yielded an IC50 (Dihydrofolate reductase [5]) of 4 µM, an IC50 [6] of 2.1 µM and an IC50 (Dihydrofolate reductase [7]) of 1.3 µM.

Work on `CN(Cc1cnc2nc(N)nc(N)c2n1)c1ccc(C(=O)N[C@@H](CCC(=O)O)C(=O)O)cc1` [METHOTREXATE] yielded a Vmax [8] of 0.82, an EC50 [10] of 1.7 µM and an EC50 [11] of 0.016 µM. The EC50 (CCRF-CEM) was 0.012 µM.

Molecule `Nc1nc(N)c2nc(CNc3ccc(C(=O)N[C@@H](CCC(=O)O)C(=O)O)cc3)cnc2n1` [AMINOPTERIN] has a Vmax [12] of 1.

`COc1cc(CN2CCc3nc4nc(N)nc(N)c4cc3C2)cc(OC)c1` showed an IC50 (Dihydrofolate reductase [5]) of 14 µM, an IC50 [6] of 2.7 µM and an IC50 (Dihydrofolate reductase [7]) of 22 µM.

Work on `Nc1nc(N)c2cc3c(nc2n1)CCN(Cc1ccc(Cl)c(Cl)c1)C3` yielded a Ratio [3] greater than 8.6, a Ratio [13] greater than 5.2 and a Ratio [4] greater than 5. The IC50 (Dihydrofolate reductase [5]) was 5 µM, the IC50 [6] was 5.1 µM and the IC50 (Dihydrofolate reductase [7]) was greater than 26 µM.

`COc1ccc(CN2CCc3nc4nc(N)nc(N)c4cc3C2)cc1` showed an inhibition [1] of 35%, an IC50 (Dihydrofolate reductase [5]) greater than 15 µM and an IC50 [6] of 2.9 µM. It also gave an IC50 (Dihydrofolate reductase [7]) of 27 µM.

B1: Folylpolyglutamate synthase, mitochondrial (Homo sapiens), Q05932 (protein)
chain: MSRARSHLRAALFLAAASARGITTQVAARRGLSAWPVPQEPSMEYQDAVRMLNTLQTNAGYLEQVKRQRGDPQTQLEAMELYLARSGLQVEDLDRLNIIHVTGTKGKGSTCAFTECILRSYGLKTGFFSSPHLVQVRERIRINGQPISPELFTKYFWRLYHRLEETKDGSCVSMPPYFRFLTLMAFHVFLQEKVDLAVVEVGIGGAYDCTNIIRKPVVCGVSSLGIDHTSLLGDTVEKIAWQKGGIFKQGVPAFTVLQPEGPLAVLRDRAQQISCPLYLCPMLEALEEGGPPLTLGLEGEHQRSNAALALQLAHCWLQRQDRHGAGEPKASRPGLLWQLPLAPVFQPTSHMRLGLRNTEWPGRTQVLRRGPLTWYLDGAHTASSAQACVRWFRQALQGRERPSGGPEVRVLLFNATGDRDPAALLKLLQPCQFDYAVFCPNLTEVSSTGNADQQNFTVTLDQVLLRCLEHQQHWNHLDEEQASPDLWSAPSPEPGGSASLLLAPHPPHTCSASSLVFSCISHALQWISQGRDPIFQPPSPPKGLLTHPVAHSGASILREAAAIHVLVTGSLHLVGGVLKLLEPALSQ
B1 showed a Km [14] of 27.3 µM and a Km [15] of 2.15 µM.
